# System: HSV-1
# Assay: HOE 140 in combination with acyclovir on HSV-1 skin lesions in hairless mice, Experiment 24/94
# Type: in vivo
# Conditions: acyclovir 0.05% orally day 3-7, no HOE 140
# Protocol: Investigation of the Action of HOE 140 on Skin Lesions Caused by HSV-1 in Hairless Mice in Combination with Acyclovir
# HOE 140 was administered twice daily either topically as a 2% strength cream in a neutral base or subcutaneously with 2 mg/kg per dosage. Acyclovir was administered as a 0.05% strength solution in the drinking water.
# Administration of acyclovir day 3-7
# Administration of HOE 140 day 3-7 or 0-7
compound,measurement,setting,value
"Nc1nc2c(ncn2COCCO)c(=O)[nH]1 [Acyclovir, acyclovir]",Average survival time,,7.3 ± 1.2 days
same,Survivors/group size,chi^2 test not significant,2/8
same,Animals with zoster formation,group size 8,7

# From patent publication US5789383A, “Bradykinin antagonists for the prophylaxis or treatment of virus diseases” (Hoechst Aktiengesellschaft, priority 1993, dated 1998)
